Test systems include A549 NSCLC; COLO 205 colon; EKVX NSCLC; HCT-15 colon; HT29 colon; MOLT-4 leukemia; SK-MEL-28 melanoma; UACC-62 melanoma; UO-31 renal; TK-10 renal.
Experiment in all cases: growth of human tumour cells (NCI), 48 h

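Briefly, cells in 96-well plates were exposed to five compound concentrations for 48 h, and endpoints were estimated by linear interpolation. At the GI50, growth is halved. TGI marks complete inhibition of growth.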 Bounds are passed on as bounds.

For `COC1C(OC(=S)Nc2ccccc2)c2ccccc2N1C(C)=O` (stereo unspecified), the TGI in the experiment with A549 NSCLC, with COLO 205 colon, in the experiment with EKVX NSCLC, in the experiment on HCT-15 colon, in the experiment on HT29 colon and with MOLT-4 leukemia was over 100 µM each time. Moreover, the TGI with SK-MEL-28 melanoma, with UACC-62 melanoma and with UO-31 renal was over 100 µM in each case.
Take `Nc1ncn([C@@H]2O[C@H](CO)[C@@H](O)[C@H]2O)c(=O)n1`: the GI50 in the experiment with A549 NSCLC is 1.03 µM; in the experiment with COLO 205 colon, 1210 nM; in the experiment with EKVX NSCLC, 8.49 µM; in the experiment on HCT-15 colon, 1600 nM; in the experiment with MOLT-4 leukemia it was 3410 nM; with SK-MEL-28 melanoma it was 2.68 µM. The GI50 is 0.658 µM in the experiment with UACC-62 melanoma and 1100 nM in the experiment on UO-31 renal. Moreover, the TGI with A549 NSCLC is over 100 µM; in the experiment on COLO 205 colon it was 3.02 µM; in the experiment with EKVX NSCLC it was over 100 µM; in the experiment with HCT-15 colon, 21.1 µM; in the experiment on MOLT-4 leukemia, 32.1 µM; in the experiment on SK-MEL-28 melanoma, 11.1 µM. The TGI in the experiment on UACC-62 melanoma is 8.67 µM; with UO-31 renal, 9.97 µM.
`O=C(Nc1cccc(C(F)(F)F)c1)c1ccc(NC2=C(Cl)C(=O)N(Cc3ccc(Cl)cc3Cl)C2=O)cc1`: the GI50 was 21.6 µM in the experiment on A549 NSCLC; 4780 nM with COLO 205 colon; 20.3 µM with EKVX NSCLC; 2310 nM in the experiment with HCT-15 colon; 3.82 µM with HT29 colon; 1310 nM in the experiment with MOLT-4 leukemia. Also, the GI50 is 14.1 µM with SK-MEL-28 melanoma, 15.6 µM in the experiment on TK-10 renal and 13.7 µM in the experiment with UACC-62 melanoma. The TGI with A549 NSCLC was 92.4 µM; with COLO 205 colon, 24.2 µM; in the experiment with EKVX NSCLC, 48.6 µM; with HCT-15 colon, 5.66 µM; in the experiment on HT29 colon it was 36.8 µM; in the experiment with MOLT-4 leukemia, 6.8 µM. Moreover, the TGI with SK-MEL-28 melanoma amounted to 30.9 µM; in the experiment with TK-10 renal, 35.7 µM; in the experiment with UACC-62 melanoma, 26.6 µM.
For `CCCCCCCCCCCCCCCC(=O)OCCOCCOCCOCc1ccccc1`, the TGI in the experiment on A549 NSCLC, with COLO 205 colon, in the experiment with EKVX NSCLC, in the experiment with HT29 colon, with SK-MEL-28 melanoma and in the experiment with TK-10 renal was over 100 µM in each case. The compound also yielded a TGI in the experiment on UACC-62 melanoma of over 100 µM.
For `O=C(OC1CCC(=C2SCCCS2)[C@H]1C1SCCCS1)c1ccccc1` (stereo partly specified), the TGI in the experiment with A549 NSCLC, in the experiment on COLO 205 colon, with EKVX NSCLC, in the experiment with HCT-15 colon, in the experiment with HT29 colon and in the experiment on MOLT-4 leukemia was over 100 µM in each case. In addition, the TGI with TK-10 renal, in the experiment with UACC-62 melanoma and in the experiment on UO-31 renal was over 100 µM in each case.
With `COc1ccc2c(c1OCC(=O)O)C(=O)C(CCC(=O)O)CC2` (stereo unspecified), the TGI in the experiment with A549 NSCLC, with COLO 205 colon, with EKVX NSCLC, with HCT-15 colon, in the experiment with HT29 colon and with MOLT-4 leukemia was over 100 µM each time. Further, the TGI in the experiment with SK-MEL-28 melanoma and in the experiment with UACC-62 melanoma was over 100 µM in each case.
For `Cc1ccccc1C(=O)c1cc(O)ccc1O`, the TGI in the experiment with A549 NSCLC, in the experiment with COLO 205 colon, in the experiment on EKVX NSCLC, in the experiment on HCT-15 colon, with HT29 colon and in the experiment on MOLT-4 leukemia was over 100 µM throughout. Further, the TGI with TK-10 renal, with UACC-62 melanoma and with UO-31 renal was over 100 µM each time.
As for `C#CC1/C(=C\C(=O)OC)CCCC1O` (stereo unspecified), the TGI with A549 NSCLC, in the experiment on COLO 205 colon, with EKVX NSCLC, with HCT-15 colon, with HT29 colon and in the experiment with MOLT-4 leukemia was over 100 µM in each case. Moreover, the TGI in the experiment with TK-10 renal, in the experiment on UACC-62 melanoma and in the experiment with UO-31 renal was over 100 µM throughout.
With `COc1cc(N(CCC#N)CCC#N)ccc1/C(N=Nc1ccc(Cl)cc1)=N/NC(=O)c1cc(Br)ccc1O`, the GI50 in the experiment with A549 NSCLC was 85.5 µg/mL; in the experiment on COLO 205 colon it was 41.7 µg/mL; in the experiment with EKVX NSCLC, 72.4 µg/mL; in the experiment with HCT-15 colon, 32.7 µg/mL; with HT29 colon it was 45.5 µg/mL; in the experiment with MOLT-4 leukemia, 32.9 µg/mL. The GI50 with SK-MEL-28 melanoma is over 150 µg/mL; in the experiment on UACC-62 melanoma, 112 µg/mL; with UO-31 renal it was 86.6 µg/mL. Besides, the TGI was over 150 µg/mL in the experiment with A549 NSCLC; 127 µg/mL in the experiment on COLO 205 colon; over 150 µg/mL in the experiment on EKVX NSCLC; 66.4 µg/mL in the experiment on HCT-15 colon; over 150 µg/mL with HT29 colon; over 150 µg/mL with MOLT-4 leukemia. Moreover, the TGI in the experiment on SK-MEL-28 melanoma, in the experiment with UACC-62 melanoma and in the experiment with UO-31 renal was over 150 µg/mL each time.
For `COc1cc(OC)c2c(=O)cc(-c3ccc(OC)c(OC)c3OC)oc2c1`, the TGI in the experiment with A549 NSCLC, in the experiment on COLO 205 colon, in the experiment on EKVX NSCLC, with HCT-15 colon, in the experiment with HT29 colon and with SK-MEL-28 melanoma was over 100 µM throughout. The TGI with TK-10 renal and in the experiment on UACC-62 melanoma was over 100 µM each time.

The values above are taken from PubChem BioAssay (NCI).
